This is an account of results in PubChem BioAssay (NCI).

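These data come from cells grown in 96-well plates and exposed to compound for 48 hours at five concentrations. GI50: concentration for 50% inhibition of growth. Definition used: TGI = concentration required for complete inhibition of growth.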

Holding throughout (assay): NCI anticancer screen, dose series, 48 h
For assay [1], the system named is HL-60(TB) leukemia.
Assay [2] concerns K-562 leukemia.
Assay [3] deals with MDA-MB-435.
Assay [4] has as its system MDA-N.
The test system of assay [5] is NCI-H226 lung.
Assay [6] concerns PC-3 prostate.
Assay [7] relates to TK-10 renal.
Assay [8] relates to SK-OV-3 ovarian.
The test system of assay [9] is RXF 393 renal.

For the compound `CC(=O)OCCOCn1cnc2c(Cl)nc(Cl)nc21`, the TGI in [1] came to 6.21 µM; in assay [2], 5.43 µM; in assay [3], 33.5 µM; in [4], 32.9 µM; in assay [5], 50.6 µM; in assay [6] it was 36.5 µM. In addition, the TGI in [7] was more than 100 µM.
In the case of `COc1cc2c(cc1OC)CCc1cc(OC)c(OC)cc1CC2`, the TGI in assay [2], in assay [3], in assay [4], in assay [5], in assay [6] and in [8] was more than 100 µM each time. The compound also showed a TGI in assay [7] of more than 100 µM.
Turning to `c1ccc2c(c1)nc1n2CNC1`, the TGI in assay [1], in [2], in [3], in assay [4], in assay [6] and in assay [9] was more than 100 µM each time. The TGI in assay [8] and in assay [7] was more than 100 µM throughout.
As to `CC(=O)OC1(C)C=CC(=O)C=C1`, the TGI was more than 100 µM in assay [1]; more than 100 µM in assay [2]; more than 100 µM in assay [3]; more than 100 µM in [4]; 73 µM in assay [5]; more than 100 µM in assay [6]. Further, the values for the TGI in assay [8] and in assay [7] were more than 100 µM and 49.8 µM, respectively.
Turning to `Cc1ccc(N=Nc2c(C)c(C#N)c(=S)n(C3OC(CO)C(O)C(O)C3O)c2C)cc1` (stereo not drawn), the TGI in [1] is more than 100 µM; in assay [2] it was more than 100 µM; in assay [3] it was 81.2 µM; in assay [4] it was more than 100 µM; in assay [6] it was more than 100 µM; in assay [9] it was 93.6 µM. Moreover, the TGI in assay [8] and in [7] was more than 100 µM throughout.
With `COc1cc(/C=C2\CCCC3=C2NC(C)=NC3c2cc(OC)c(OC)c(OC)c2)cc(OC)c1OC` (stereo not drawn), the GI50 in assay [2] is 917 nM; in assay [6] it was 2.05 µM; in assay [7], 4.33 µM. Also, the TGI in assay [2], in [6] and in assay [7] was more than 100 µM each time.
For `Cc1cc(C)n(C2OC(CO)C(O)C(O)C2O)c(=S)c1C#N` (stereo not drawn), the TGI in assay [1], in [3], in [4], in assay [5], in assay [6] and in [9] was more than 100 µM in each case. In assay [7], the TGI is more than 100 µM.
As to `COc1ccc(C2=Nn3c(nnc(Cc4ccc(Cl)cc4)c3=O)SC2)cc1`, the TGI in [1] was more than 100 µM; in assay [2], more than 100 µM; in [3], 33.4 µM; in [5], more than 100 µM; in [6] it was more than 100 µM; in assay [9] it was more than 100 µM. In addition, the TGI in [8] and in assay [7] was more than 100 µM in each case.
In the case of `CCOP(=O)(CN1CCNCCNCC1)OCC`, the TGI in [1], in [2], in assay [3], in assay [4], in assay [5] and in assay [6] was more than 100 µM each time. The TGI in assay [8] and in assay [7] was more than 100 µM each time.
In the case of `N#C/C(N)=C(\C#N)N=CN`, the TGI in assay [1], in [2], in [3], in [4], in assay [6] and in assay [8] was more than 100 µM each time. Moreover, in assay [7], the TGI is more than 100 µM.
For `O=C(O)Cc1cccc2c1OC(c1ccccc1)C(Cl)(C(=O)c1ccccc1)C2=O` (stereo not drawn), the TGI in assay [1] was found to be 28 µM; in assay [2], 22.6 µM; in [3] it was 30.6 µM; in [4], 29 µM; in assay [5], 80.9 µM; in [6] it was 24.3 µM. Besides, the figures for the TGI in [8] and in [7] were more than 100 µM and 37.2 µM, respectively.
As to `O=S1(=O)N(CCNc2nccc(-c3c(-c4cccc(O)c4)nc4sccn34)n2)CCN1Cc1ccccc1`, the GI50 in [1] was 8.4 µM; in assay [2], 3440 nM; in assay [3], 1230 nM; in [5], 7.45 µM; in assay [6], 5.66 µM; in [9], 982 nM. In addition, the GI50 in [7] was 4.07 µM. The TGI is 20.1 µM in assay [1]; more than 50 µM in assay [2]; more than 50 µM in assay [3]; 20.8 µM in [5]; more than 50 µM in assay [6]; 9.37 µM in assay [9]. The TGI in assay [7] was found to be 29.2 µM.
`CC(C)Oc1ccc2c(c1)OCC1Cc3ccccc3OC21` (stereo not drawn): the TGI in [1], in [2], in assay [3], in assay [4], in [5] and in [6] was more than 100 µM in each case. Moreover, the TGI in assay [8] and in assay [7] was more than 100 µM throughout.
Consider `c1csc(-c2cc(-c3cccs3)c(-c3ccsc3)s2)c1`, for which the TGI in assay [1], in assay [2], in assay [3], in assay [4], in assay [5] and in assay [6] was more than 100 µM in each case. Also, the TGI in assay [8] and in [7] was more than 100 µM throughout.
`Cc1ccc2c(c1)C1(C)OC(C=CC1=O)O2` (stereo not drawn): the TGI in assay [1] stood at 0.998 µM; in assay [2], 0.902 µM; in assay [3] it was 0.317 µM; in assay [5], 7.94 µM; in assay [6], 3.81 µM; in assay [9], 1.56 µM. For the same compound, the TGI was 12 µM in [8] and 5.5 µM in assay [7].
Turning to `CC(C)(C)c1ccc(-c2nc3ccc(Cl)cc3c(=O)o2)cc1`, the TGI in assay [1] is 42.4 µM; in assay [2], 67.8 µM; in assay [3] it was 56.5 µM; in assay [4], 64 µM; in assay [6], 92.1 µM; in assay [9] it was 87.1 µM. Moreover, the TGI was 68.7 µM in assay [8] and more than 100 µM in assay [7].
